We go through 1 substance from US11452781B2, “Method of preventing and treating type 1 diabetes, allograft rejection and lung fibrosis (by targeting the ATP/P2X7R axis)” (CHILDREN'S MEDICAL CENTER CORPORATION, priority 2013, dated 2022).

Where “and” joins values, the source holds several entries; their conditions need not be identical. Equal entries are not always repeated. Entries after “also recorded” stand apart in the source; their conditions may differ.

For series [1], the system named is C57BL/6 mice transplanted with BALB/c hearts. The format is in vivo, mouse. Details: long-term cardiac transplant survival (>100 days), share of recipients: dose or concentration left out as unconfirmed. To be noted: oATP i.p. daily for 14 days.
Protocol: The effect of P2X7R targeting in preventing cardiac transplant rejection was tested using the P2X7R inhibitor oATP.
The effect of P2X7R targeting in preventing cardiac transplant rejection was tested by using the P2X7R inhibitor oATP.
In series [2] the test system is C57BL/6 mice transplanted with BALB/c islets. The series is described as follows: Allogeneic islet transplantation, BALB/c islets into diabetic C57BL/6 mice: graft survival. The series is classed as in vivo, mouse.
The test system of series [3] is splenocytes of islet-transplanted mice. The series is described as follows: Immune profiling of islet-transplanted mice (ELISPOT, flow cytometry, serum cytokines). The series is classed as in vivo, mouse. To be noted: day 14. Here is the method:
The effect of oATP treatment on the immune system of transplanted mice was tested. Splenocytes were collected in untreated or oATP-treated mice at day 14 after transplantation and challenged ex vivo in an ELISPOT assay with BALB/c irradiated splenocytes.
Immune profiling of islet-transplanted oATP-treated and untreated mice was performed at day 14 after transplantation.
(Flow cytometry measures light scatter and fluorescence of single cells or particles in a stream.)

The subject of the next series is STAT3. The series is described as follows: STAT3 phosphorylation in CD4+ T cells of cardiac-transplanted mice (Western blot). The format is in vivo, mouse. The conditions noted are these: 7 days after transplantation. Here is the method: Several key components of T-cell receptor signaling involved in the alloimmune response were examined, and the phosphorylation kinetics following in vitro anti-CD3-Ig/anti-CD28-Ig-mediated CD4+ T-cell activation was evaluated by using the Luminex assay. […] The inventors first confirmed that Colivelin (Col) was able to restore the activation-induced phosphorylation of STAT3 in a dose-dependent manner in oATP-treated CD4+ T cells by Western blotting. […] The effect of oATP and Colivelin on STAT3 phosphorylation and T-cell function was also evaluated following cardiac transplantation.
(Immunoblotting shows a protein as a band on a membrane.)

In the next series the test system is naïve Th0 cells. The series is described as follows: Th1/Th17 generation and differentiation assay. The format is cell-based, mouse. To be noted: 100 μM oATP. On the procedure: Naïve Th0 cells were differentiated into Th1 or Th17 cells, and IFN-γ^+ and IL-17^+ cells were quantified by flow cytometry. Addition of 100 μM oATP inhibited the conversion of naïve Th0 cells into Th1 (FIGS. 6A-6B) and Th17 cells (FIGS. 6C-6D).
To address the mechanisms underlying P2X7R targeting mediated inhibition of cardiac transplant rejection, the inventors analyzed the effect of P2X7R targeting on T-cell activation and Th1/Th17 differentiation in vitro. […] The effect of in vitro P2X7R targeting with oATP during CD4+ T-cell activation was tested. […] Second, in a T-cell proliferation assay, carboxyfluorescein diacetate succinimidyl ester-labeled naïve CD4+ T cells were stimulated for 96 hours with 0.5 μg/mL anti-CD3-Ig and anti-CD28-Ig, and treatment with 100 μM oATP diminished CD4+ T cell proliferation in comparison with controls. […] The inventors next tested the effect of in vitro P2X7R targeting during a Th1/Th17 generation and differentiation assay. […] P2X7R targeting with oATP inhibited Th0 conversion into both Th1 and Th17, as assessed by the percentage of IFN-γ+ and IL-17+ cells, respectively. […] In a Th1/Th17 generation assay, pmY-P2X7R CD4+ T cells seemed to display increased differentiation capacity in comparison with pmY-mock CD4+ T cells, as assessed by T-bet and ROR-γ expression.

Series [4] has as its system C57BL/6 mice transplanted with Bm12 left lung. Kind of series: Allogeneic orthotopic left lung transplantation, Bm12 into C57BL/6. The format is in vivo, mouse. Here is the method: The effect of oATP treatment in a model of allogeneic orthotropic left lung transplantation (Bm12 into C57BL/6) was assessed. Graft rejection and tissue fibrosis occurs early after transplantation and it is complete by day 30. […] CT scan was also performed in untreated or oATP-treated mice. Radiological analysis confirmed the preserved alveolar space and thus the functional integrity of oATP-treated compared to untreated mice (FIG. 8). oATP treatment is a rescue therapy for lung rejection. In a complementary experiment, oATP was tested as a rescue therapy for lung rejection. Bm12 left lung was transplanted into C57BL/6 mice and oATP treatment was started at day 10 after transplantation (when graft infiltration and rejection are evident) and mice follow for 30 days.

Series [5] concerns C57BL/6 splenocytes. The series is described as follows: In vitro alloimmune ELISPOT, C57BL/6 responder splenocytes vs irradiated BALB/c splenocytes. The format is cell-based, mouse. From the text:
The effect of increasing doses of oATP on Th1/Th17 cytokine levels was next tested. A dose-dependent response was evident, in which oATP reduced the number of cells producing Th1 cytokines (IFN-γ and IL-2) and Th17 cytokines (IL-6 and IL-17). Because it has been reported that oATP may affect other P2XRs, the inventors made use of the availability of the selective P2X1R inhibitor NF 449 and of the selective P2X3R inhibitor NF 110. C57BL/6 splenocytes were stimulated with irradiated BALB/c splenocytes, and IFN-γ production was evaluated in the presence of these inhibitors.

A further series deals with ABM CD4+ TCR-Tg T cells. The series is described as follows: Alloantigen-specific ABM CD4+ TCR-Tg T cells, bm12 hearts into C57BL/6 Rag-/- mice. The format is in vivo, mouse. An excerpt:
To address whether the inhibition of the effector T-cell compartment is related to reduced priming and expansion of alloreactive T cells or to their increased apoptosis, alloreactive-specific T cells were tracked in a transgenic model of cardiac transplantation. Bm12 hearts were transplanted into C57BL/6 Rag−/− mice, and 3×10^6 ABM CD4+ TCR-Tg T cells (specific for bm12 major histocompatibility complex class II antigens) were subsequently adoptively transferred into cardiac transplant recipients.

Series [6] concerns C57BL/6 splenocytes. Kind of series: Apoptosis of allo-challenged splenocytes (annexin V, FACS). To be noted: oATP, 24 h.
Protocol: To confirm the data obtained in vivo, the effect of targeting P2X7R in vitro was evaluated using alloimmune-relevant assays. Responder splenocytes from C57BL/6 mice were challenged with irradiated stimulator splenocytes from BALB/c mice. The numbers of cells producing IFN-γ and IL-4 were evaluated in an ELISPOT assay in the presence of increasing concentrations of oATP.

As to periodate-oxidized ATP [oATP], in [1], the “long-term cardiac transplant survival (>100 days), share of recipients” value came out at 80%. Further, in [2] (mouse, in vivo), the “islet allograft survival (in words)” value was “prolongs graft survival”; the “mice with long-term graft function at 100 days (of n)” value is 3 out of 10 and 3 of 10. The “islet allograft mean survival time (MST)” value in series [2] (oATP daily i.p. 14-15 days, rapamycin 0.1 mg/kg 10 days) turned out to be 22 days. Further, in series [3], the Th17 cells result is reported as “reduced; also recorded: Slight reductions”, the “number of cells producing IL-4” value was “no effect”, the “percentages of CD8+ T effector cells” value is reported as “Slight reductions” and the “percentages of peripheral CD4+ T effector cells” value was “No significant changes”. In series [3], the “percentages of regulatory T-cells” value is listed as “No differences” and the “serum IL-6” value is reported as “reduced”. Moreover, the “phosphorylated STAT3 in CD4+ T cells” value with STAT3 was “reduced levels”. Moreover, in the series on naïve Th0 cells, the “conversion of naïve Th0 cells into Th1 (IFN-γ+ cells)” value is on record as “inhibited” and the “conversion of naïve Th0 cells into Th17 (IL-17+ cells)” value is “inhibited”. The “lung function (PawP, compliance) after rescue therapy” value in series [4] (oATP started at day 10) is listed as “Better functional preservation of lung compliance”. Also, the “radiological and histological analysis after rescue therapy” value in series [4] (oATP started at day 10, followed for 30 days) was “reversal of graft rejection and no signs of fibrosis; also recorded: preservation of alveolar space”. For the same substance, the “graft fibrosis, inflammation and alveolar spaces” value in [4] (treatment from transplantation) was “prevents graft fibrosis; also recorded: highly reduced inflammation and preserved alveolar spaces”. In the series on C57BL/6 splenocytes [5] (increasing concentrations of oATP), the IL-4 production entry is “dose-dependent increase”. For the same substance, in the series with C57BL/6 splenocytes [5] (increasing doses, dose-dependent), the “number of cells producing Th1 (IFN-γ, IL-2) and Th17 (IL-6, IL-17) cytokines” value is “reduced”. Further, the “TCR-Tg T-cell apoptosis” value with ABM CD4+ TCR-Tg T cells (4 days following adoptive transfer) is reported as “without substantial differences”. Besides, in the series with ABM CD4+ TCR-Tg T cells (mouse, in vivo), the “ABM CD4+ TCR-Tg T-cell proliferation (CFSE dilution)” value is “decrease”; the “numbers of Teffs and Th17 cells within the Tg population” value is given as “marked reduction”. Also, the “numbers of ABM CD4+ TCR-Tg T cells” value in the series on ABM CD4+ TCR-Tg T cells (seven days posttransplantation) is listed as “reduced numbers”. For the same substance, in the series with C57BL/6 splenocytes [6], the “percentage of apoptotic cells (annexin V+)” value was “no increase”.
